# Source: patent US11639353B2, “Cyclobutanes- and azetidine-containing mono and spirocyclic compounds as αV integrin inhibitors” (BRISTOL-MYERS SQUIBB COMPANY, priority 2016, dated 2023)
# pIC50: −log10 of the molar value.
# Assays:
# Conditions in all cases: alternatively SPA-based assay
# human αVβ3 = human αVβ3 (Homo sapiens, UniProt P05106+P06756); assay: human αVβ3 HTRF binding assay
# Procedure: (§1) All binding assays used the HTRF (homogeneous time resolved fluorescence) technology from Cisbio International, therefore all assays are described as HTRF binding assays. The assay results for the Examples are listed above together with the characterization data. The HTRF binding assays are established for the following integrins: human αVβ6, human αVβ1, human αVβ3, human αVβ5, and human αVβ8. All assays used the following assay buffer: 20 mM Tris, pH 7.4, 1 mM MgCl2, 1 mM MnCl2, 0.01% Tween 20, and 0.01% BSA. Alternatively, a SPA-based assay was used for evaluation of receptor binding.
# (§2) The SPA-based assay was carried out according to the protocol and procedures similar to the ones described in the following reference with appropriate modifications to agents and ligands which are readily understood by one skilled in the art: Pachter J A, Zhang R, Mayer-Ezell R., “Scintillation proximity assay to measure binding of soluble fibronectin to antibody-captured αVβ1 integrin” Anal Biochem. 1995 Sep. 1; 230(1):101-7.
# human αVβ6 = biological target: T1, human αVβ6 (Homo sapiens, UniProt P06756+P18564); assay: human αVβ6 HTRF binding assay
# T1 construct: purchased R & D systems 3817-AV
# Method in brief: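 Biotinylated recombinant human αVβ6 (1.25 nM final) incubated with FITC-fibronectin (5 nM final) 1 h at RT, then streptavidin-terbium (0.625 nM final) added and left overnight at RT in the dark before HTRF reading. Buffer: 20 mM Tris pH 7.4, 1 mM MgCl2, 1 mM MnCl2, 0.01% Tween 20, 0.01% BSA.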
# human αVβ5 = human αVβ5 (Homo sapiens, UniProt P06756+P18084); assay: human αVβ5 HTRF binding assay
# Procedure: as §1, §2
# human αVβ1 = human αVβ1 (Homo sapiens, UniProt P05556+P06756); assay: human αVβ1 HTRF binding assay
# Procedure: as §1, §2
# human αVβ8 = human αVβ8 (Homo sapiens, UniProt P06756+P26012); assay: human αVβ8 HTRF binding assay
# Procedure: as §1, §2
# T1 sequence (P06756 31-992 limits assumed): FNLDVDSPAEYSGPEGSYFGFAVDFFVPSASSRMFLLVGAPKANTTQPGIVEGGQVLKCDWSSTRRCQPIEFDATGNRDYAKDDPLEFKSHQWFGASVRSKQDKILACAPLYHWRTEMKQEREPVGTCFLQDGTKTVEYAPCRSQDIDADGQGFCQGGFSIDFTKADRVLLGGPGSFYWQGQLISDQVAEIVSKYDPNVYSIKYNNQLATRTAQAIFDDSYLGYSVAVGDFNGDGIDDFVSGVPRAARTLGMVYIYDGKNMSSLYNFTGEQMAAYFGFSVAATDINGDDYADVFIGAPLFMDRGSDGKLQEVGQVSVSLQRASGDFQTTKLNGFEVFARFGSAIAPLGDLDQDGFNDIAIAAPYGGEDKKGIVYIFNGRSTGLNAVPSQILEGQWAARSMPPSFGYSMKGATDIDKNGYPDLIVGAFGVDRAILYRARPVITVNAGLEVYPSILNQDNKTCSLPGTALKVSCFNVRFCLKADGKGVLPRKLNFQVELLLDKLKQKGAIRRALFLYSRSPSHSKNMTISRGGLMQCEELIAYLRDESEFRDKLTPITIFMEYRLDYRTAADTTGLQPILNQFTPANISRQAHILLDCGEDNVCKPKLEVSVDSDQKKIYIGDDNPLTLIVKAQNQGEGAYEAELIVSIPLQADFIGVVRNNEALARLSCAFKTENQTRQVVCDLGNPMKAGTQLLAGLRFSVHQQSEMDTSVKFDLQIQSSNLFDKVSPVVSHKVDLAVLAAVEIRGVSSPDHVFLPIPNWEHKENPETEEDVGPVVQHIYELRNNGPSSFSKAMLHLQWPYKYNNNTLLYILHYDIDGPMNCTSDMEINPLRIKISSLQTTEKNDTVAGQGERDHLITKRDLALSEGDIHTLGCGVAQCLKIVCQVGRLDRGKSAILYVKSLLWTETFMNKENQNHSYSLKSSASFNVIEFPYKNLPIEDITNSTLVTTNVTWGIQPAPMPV
# T1 sequence (P18564 22-707 limits assumed): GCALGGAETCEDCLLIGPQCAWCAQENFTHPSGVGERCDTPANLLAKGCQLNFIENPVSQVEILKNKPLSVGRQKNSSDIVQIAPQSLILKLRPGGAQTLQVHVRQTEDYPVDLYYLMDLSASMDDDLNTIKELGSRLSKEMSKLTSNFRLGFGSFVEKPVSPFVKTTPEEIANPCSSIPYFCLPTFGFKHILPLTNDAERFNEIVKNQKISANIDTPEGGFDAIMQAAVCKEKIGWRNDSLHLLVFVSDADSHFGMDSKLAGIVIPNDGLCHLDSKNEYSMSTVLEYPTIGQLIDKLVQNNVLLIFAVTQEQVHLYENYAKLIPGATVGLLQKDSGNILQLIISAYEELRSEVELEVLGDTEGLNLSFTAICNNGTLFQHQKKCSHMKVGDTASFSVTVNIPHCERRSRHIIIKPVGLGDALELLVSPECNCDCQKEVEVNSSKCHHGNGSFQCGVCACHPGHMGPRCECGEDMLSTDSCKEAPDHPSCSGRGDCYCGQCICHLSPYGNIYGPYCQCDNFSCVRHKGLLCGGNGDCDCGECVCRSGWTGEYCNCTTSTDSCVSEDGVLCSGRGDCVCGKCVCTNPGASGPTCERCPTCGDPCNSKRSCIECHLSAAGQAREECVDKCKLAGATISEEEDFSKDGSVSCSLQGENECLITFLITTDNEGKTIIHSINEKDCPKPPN
# Sequence of human αVβ8 (P06756 31-992 limits assumed): as the sequence (P06756 31-992 limits assumed) above
# Sequence of human αVβ8 (P26012 43-684 limits assumed): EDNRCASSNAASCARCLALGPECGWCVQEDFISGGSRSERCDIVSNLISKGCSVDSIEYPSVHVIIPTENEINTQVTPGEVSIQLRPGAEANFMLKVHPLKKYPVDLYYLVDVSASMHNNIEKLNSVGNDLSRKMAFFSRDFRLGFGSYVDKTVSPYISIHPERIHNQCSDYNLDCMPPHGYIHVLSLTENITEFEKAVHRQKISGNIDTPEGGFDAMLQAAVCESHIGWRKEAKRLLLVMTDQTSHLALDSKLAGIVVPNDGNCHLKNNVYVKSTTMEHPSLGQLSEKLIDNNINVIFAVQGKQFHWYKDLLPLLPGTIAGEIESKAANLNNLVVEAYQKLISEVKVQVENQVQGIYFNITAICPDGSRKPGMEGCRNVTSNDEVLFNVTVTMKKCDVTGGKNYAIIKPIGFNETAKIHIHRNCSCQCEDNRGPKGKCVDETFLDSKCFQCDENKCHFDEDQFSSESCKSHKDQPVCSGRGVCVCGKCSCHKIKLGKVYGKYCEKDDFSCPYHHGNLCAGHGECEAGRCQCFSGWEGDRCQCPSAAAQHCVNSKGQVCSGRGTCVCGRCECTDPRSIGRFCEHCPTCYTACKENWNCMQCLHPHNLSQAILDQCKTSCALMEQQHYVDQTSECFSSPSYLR
# Sequence of human αVβ3 (P06756 31-992 limits assumed): as the sequence (P06756 31-992 limits assumed) above
# Sequence of human αVβ3 (P05106 27-718 limits assumed): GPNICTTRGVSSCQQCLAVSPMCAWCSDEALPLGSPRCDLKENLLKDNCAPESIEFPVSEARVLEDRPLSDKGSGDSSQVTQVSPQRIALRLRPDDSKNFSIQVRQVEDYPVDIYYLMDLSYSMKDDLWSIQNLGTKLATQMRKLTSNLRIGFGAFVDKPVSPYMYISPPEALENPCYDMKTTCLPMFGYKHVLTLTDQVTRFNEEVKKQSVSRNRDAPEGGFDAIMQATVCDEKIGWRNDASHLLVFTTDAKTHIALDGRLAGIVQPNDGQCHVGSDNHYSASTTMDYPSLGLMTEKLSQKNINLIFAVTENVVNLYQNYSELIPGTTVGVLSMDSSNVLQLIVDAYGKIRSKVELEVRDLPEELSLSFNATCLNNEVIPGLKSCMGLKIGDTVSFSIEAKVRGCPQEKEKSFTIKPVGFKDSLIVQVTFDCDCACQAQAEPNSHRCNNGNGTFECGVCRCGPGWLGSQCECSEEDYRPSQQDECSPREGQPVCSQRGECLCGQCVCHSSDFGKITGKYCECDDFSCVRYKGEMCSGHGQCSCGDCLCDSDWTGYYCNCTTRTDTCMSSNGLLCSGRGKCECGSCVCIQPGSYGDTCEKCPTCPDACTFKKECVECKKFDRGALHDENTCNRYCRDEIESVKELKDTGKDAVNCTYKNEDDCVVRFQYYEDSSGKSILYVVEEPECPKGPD
# Sequence of human αVβ5 (P06756 31-992 limits assumed): as the sequence (P06756 31-992 limits assumed) above
# Sequence of human αVβ5 (P18084 24-719 limits assumed): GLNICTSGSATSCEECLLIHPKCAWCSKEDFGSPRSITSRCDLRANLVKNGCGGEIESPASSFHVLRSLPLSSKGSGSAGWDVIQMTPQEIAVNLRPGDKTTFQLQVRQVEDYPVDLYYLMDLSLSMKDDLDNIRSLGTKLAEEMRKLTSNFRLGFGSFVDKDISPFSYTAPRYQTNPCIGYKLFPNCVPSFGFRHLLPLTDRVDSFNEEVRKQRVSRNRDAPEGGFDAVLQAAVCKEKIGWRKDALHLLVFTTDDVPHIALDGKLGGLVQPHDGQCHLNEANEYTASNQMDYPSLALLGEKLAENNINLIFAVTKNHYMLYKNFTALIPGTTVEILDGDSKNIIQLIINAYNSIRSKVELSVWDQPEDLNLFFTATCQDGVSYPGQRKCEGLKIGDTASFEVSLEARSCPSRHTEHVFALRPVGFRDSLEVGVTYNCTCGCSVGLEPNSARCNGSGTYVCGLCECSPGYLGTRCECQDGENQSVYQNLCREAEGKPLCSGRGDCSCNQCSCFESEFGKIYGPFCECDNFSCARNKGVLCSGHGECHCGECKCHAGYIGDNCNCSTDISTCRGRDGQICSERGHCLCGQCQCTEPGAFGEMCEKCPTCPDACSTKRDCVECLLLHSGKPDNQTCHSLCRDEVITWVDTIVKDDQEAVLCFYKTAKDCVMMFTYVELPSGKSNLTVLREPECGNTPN
# Sequence of human αVβ1 (P06756 31-992 limits assumed): as the sequence (P06756 31-992 limits assumed) above
# Sequence of human αVβ1 (P05556 21-728 limits assumed): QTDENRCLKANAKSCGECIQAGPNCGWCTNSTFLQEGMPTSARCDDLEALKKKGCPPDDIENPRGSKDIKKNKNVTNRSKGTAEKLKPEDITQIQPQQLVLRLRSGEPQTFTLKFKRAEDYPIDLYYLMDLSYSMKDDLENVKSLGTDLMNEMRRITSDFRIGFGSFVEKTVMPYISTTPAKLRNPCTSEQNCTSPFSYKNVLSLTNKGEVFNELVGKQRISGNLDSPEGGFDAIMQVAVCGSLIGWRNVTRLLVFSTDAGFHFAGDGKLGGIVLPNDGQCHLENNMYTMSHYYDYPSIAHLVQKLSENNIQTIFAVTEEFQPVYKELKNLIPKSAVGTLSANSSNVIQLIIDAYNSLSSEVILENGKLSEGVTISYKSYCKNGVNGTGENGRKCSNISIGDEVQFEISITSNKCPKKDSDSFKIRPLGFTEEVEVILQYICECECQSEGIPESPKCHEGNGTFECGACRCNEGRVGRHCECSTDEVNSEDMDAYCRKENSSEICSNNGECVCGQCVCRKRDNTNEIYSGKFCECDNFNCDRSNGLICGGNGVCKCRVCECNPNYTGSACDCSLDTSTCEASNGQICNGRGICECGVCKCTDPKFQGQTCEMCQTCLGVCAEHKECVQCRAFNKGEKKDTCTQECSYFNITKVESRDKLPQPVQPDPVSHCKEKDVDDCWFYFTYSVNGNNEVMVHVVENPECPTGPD
pIC50 (human αVβ3),pIC50 (human αVβ6),pIC50 (human αVβ5),pIC50 (human αVβ1),pIC50 (human αVβ8),SMILES
8.33,9.21,7.39,7.22,7.08,O=C(O)C[C@H](NC(=O)[C@H]1C[C@H](CCc2ccc3c(n2)NCCC3)C1)c1cnc2ccccc2c1 [Example 84]
8.74,8.72,8.92,6.40,6.20,"COc1ccc([C@H](CC(=O)O)N2CC(CCCCc3ccc4c(n3)NCCC4)C2=O)cn1 (stereo partly drawn) [Example 9, (3S)-3-(6-Methoxypyridin-3-yl)-3-(2-oxo-3-(4-(5,6,7,8-tetrahydro-1,8-naphthyridin-2-yl)butyl)azetidin-1-yl)propanoic acid]"
